According to patent publication US6924288B2, “Enantiomerically pure opioid diarylmethylpiperzine and methods of using same” (priority 2001, dated 2005):

Key:
[1] = target: T1, δ opioid receptor (Rattus norvegicus, UniProt P33533); test: Radioligand binding, [3H]Deltorphin II competition, rat brain membranes; settings: read-out: Rat Brain Membrane K1 (nM) δ
T1 construct: tissue Pel-Freeze Biological Inc. (Rogers, Ark.); host or cells: rat whole brain membranes
Procedure: (§1) Two stereoisomerically related racemic mixtures and inclusive enantiomers were evaluated for in vitro opioid receptor affinity in rat brain membranes (μ and δ opioid) and guinea pig cerebellum (κ opioid receptor). Membranes for radioligand binding were prepared from either rat whole brain or guinea pig cerebellum, supplied by Pel-Freeze Biological Inc. (Rogers, Ark.). Tissues were homogenized in 50 mM TRIS (Tris[hydrooxymethyl]aminomethane) buffer (pH 7.4) containing 50 ug/ml soybean trypsin inhibitor, 1 mM EDTA (Ethylenediaminetetraacetic acid), and 100 μM PMSF (Phenylmethylsulfonyl fluoride). The homogenized brain tissues were centrifuged at 500×g for 30 minutes (4° C.) to remove large debris. The supernatant was polytronically sonicated for 10 seconds (P.E. setting of 2, 4° C.). Sucrose solution was then added to a final concentration of 0.35 M using a 10 mM TRIS-Sucrose buffer (pH 7.4) and the brain membranes were then centrifuged at 40,000×g for 30 minutes (4° C.). The membrane pellets were then washed twice in 10 mM TRIS buffer (pH 7.4) containing 50 μg/ml soybean trypsin inhibitor, 1 mM EDTA, and 100 μM PMSF.
(§2) Radioligand binding assays were performed in 10 mM TRIS buffer (pH 7.4) containing 50 μg/ml soybean trypsin inhibitor, 1 mM EDTA, 5 mM MgCl2, and 100 μM PMSF. Tritium-labeled DAMGO (μ), Deltorphin II (δ), or U69593 (κ) purchased from New England Nuclear were used as ligands in competitive experiments (2-3×10^−10 M final concentrations) with non-specific binding defined by 0.5×10^−6 M Naloxone (purchased from SIGMA Chemical Co.). All binding assays were run at room temperature for 90 minutes and then terminated by rapid filtration on GF/C glass fiber filters (Whatman, Hillsboro, Oreg.) with 50 mM TRIS buffer (4° C., pH 7.4) employing a Brandel Semi-automatic Cell Harvester (Model M48, Brandel, Gaithersburg, Md.). The filters were washed twice with 50 mM TRIS buffer (4° C., pH 7.4) and the filters were placed in liquid scintillation cocktail and the bound radioactivity counted on a Beckman LS 6500 scintillation counter. The potency of the compounds in inhibiting the binding of radiolabelled DAMGO (μ), Deltorphin II (δ), or U69593 (κ) was determined from full concentration-effect curves. With the computer program Prism (GraphPad Software Inc., San Diego, Calif.) the IC50 values were determined using a one-site nonlinear regression analysis of the radioligand binding data. The IC50 values were then converted to Ki values using the Cheng-Prusoff equation. (Cheng Y and Prusoff W H (1973) Relationship between the inhibition constant (K1) and the concentration of inhibitor which causes 50 percent inhibition (I50) of a enzymatic reaction. Biochem Pharm 22:3099-3108.)

[2] = target: T2, κ opioid receptor (Cavia porcellus, UniProt P41144); test: Radioligand binding, [3H]U69593 competition, guinea pig cerebellum membranes; settings: read-out: Guinea Pig Brain Membrane K1 (nM) κ
T2 construct: tissue Pel-Freeze Biological Inc. (Rogers, Ark.); host or cells: guinea pig cerebellum membranes
Procedure: as §1, §2

[3] = target: T3, Mu receptor, mouse vas deferens (Mus musculus, UniProt P42866); test: Mouse vas deferens, inhibition of electrically induced contractions, mu (with TIPP and nor-BNI); assay type: cell-based; settings: in presence of 3 μM TIPP and 15 nM nor-BNI; read-out: Mouse Vas Deferens ED50 (nM) μ
T3 construct: Mouse vasa deferentia (MVD), CD-1 strain, Harlan, Raleigh, N.C.) were removed from mice; tissue Harlan, Raleigh, N.C; (animals); host or cells: mouse vas deferens, CD-1 strain

[4] = system: rats; test: Tail pinch test for analgesia in rats; assay type: in vivo; settings: rat; for Analgesia (delay of response to tail pinch): 0.30 mg/kg i.v., cutoff 20 sec
Procedure: Analgesia was assayed in rats using the tail pinch test with simultaneous monitoring of capillary blood gases (pCO2). During this testing period respiratory depression values were also obtained. Male rats (Wistar Hannover 200-300 g) were anesthetized with 2% isoflurane (J. A. Webster, Inc., Sterling, Mass. The femoral artery was cannulated with PE50 tubing for blood sampling. The external jugular vein was also cannulated with Silastic tubing for drug injection. After surgery, anesthetic gases were removed and the rat was allowed to rest in a plastic restrainer for 60 minutes to establish baseline values of blood gases.
The compounds 1-6 were administered intravenous. Nociceptive response and respiratory values were obtained for a 1-2 hour period. The femoral artery cannulation was used to draw arterial blood into a syringe pre-wetted with heparin. Samples were then analyzed with a blood gas analyzer (Ph/Gas Analyzer Synthesis 25 Model, Instrumentation Laboratory) to assess respiratory depression effects. The volume of blood taken each time was 0.15 cc. The syringes were capped immediately and the blood gases analyzed within 5 minutes. The blood exposed to air at the tip of the syringe was expelled. The blood was mixed by gentle inversion and an aliquots of 0.10 cc was injected into the blood gas analyzer.
An artery clamp was placed on the tail (one inch from the tip of the tail) for a short duration until an escape response occurred (i.e. tail-flick or vocalization). The escape response latency was recorded by means of a stopwatch. A cutoff time of 20 sec. was used to prevent unnecessary tissue damage. […] The elapsed time to elicit a pain response was recorded as the tail pinch latency in seconds. Blood gases were monitored at approximately the same time points as the tail pinch test.
The ED50 values for analgesia potency and respiratory depression were determined to calculate the safety or therapeutic ratio, which is defined as the respiratory depression ED50 divided by analgesia ED50.

[5] = system: beagle dogs; test: Emesis observation in beagle dogs, escalating i.v. doses; assay type: in vivo, dog; settings: i.v. slow bolus, 0.1, 0.3 and 0.5 mg/kg
From the text: The following describes a procedure that provided observations on the emesis effects of (−)-3-((S)-((2S,5R)-4-allyl-2,5-dimethyl-1-piperazinyl)(3-thienyl)methyl)phenol (DPI-125). Three adult male beagle dogs were separately administered (−)-3-((S)-((2S,5R)-4-allyl-2,5-dimethyl-1-piperazinyl)(3-thienyl)methyl)phenol (DPI-125) in escalating dosages. Doses were chosen to produce blood levels consistent with strong to extreme analgesia and that would produce obvious pharmacological effects including lethargy and sedation. The compound was dissolved in sterile 5% dextrose solution that was buffered with acetic acid/sodium acetate buffer and administered intravenously in a slow bolus injection over 1-2 minutes. Firstly, the three dogs were administered test volume dosages of buffered 5% dextrose to ensure there was no reaction to the vehicle. Secondly, (−)3-((S)-((2S,5R)-4-allyl-2,5-dimethyl-1-piperazinyl)(3-thienyl)methyl)phenol (DPI-125) was administered in single injections at escalating dosages of 0.1, 0.3 and 0.5 mg/kg, with an intervening seven-day period before giving the next highest dose.

Structure (SMILES): C=CCN1C[C@H](C)N([C@H](c2ccsc2)c2cccc(O)c2)C[C@H]1C [Compound 2, (−)3-((S)-((2S,5R)-4-allyl-2,5-dimethyl-1-piperazinyl)(3-thienyl)methyl)phenol]
- Ki [1]: 0.88 nM
- Ki [2]: 1.77 nM
- EC50 [3]: 38.8 nM
- Analgesia (delay of response to tail pinch) ([4]; 4 min.): 20 s
- Analgesia (delay of response to tail pinch) ([4]; 8 min.): 20 s
- Analgesia (delay of response to tail pinch) ([4]; 32 min.): 12.3 s
- Analgesic effect in words ([4]; i.v., tail pinch, FIGS. 1-6): safely maintains analgesia for an extended time
- ED50 ([4]; intravenous, tail pinch, 20 sec cutoff): 0.046 mg/kg
- Retching or vomiting (emesis) [5]: No retching or vomiting was observed
